Reference: patent publication US12723063B2, “GIPR-agonist compounds” (Eli Lilly and Company, priority 2019, dated 2026)
*1 amine or outer side, *2 acyl side, *3 side chain or, on linkers, in order; H or OH if unused. Where a SMILES comes first, the peptide text is derived from it. Side-chain parts run from the residue outwards. [ ]: non-standard residue; d: D form. The star is where a group is joined. C20 diacid = O=C(O)CCCCCCCCCCCCCCCCCCC(=O)*; γGlu = O=C(O)[C@H](CCC(=O)[*:2])N[*:1]; αMeF = C[C@](N)(Cc1ccccc1)C(=O)O; 4Pal = N[C@@H](Cc1ccncc1)C(=O)O; αMeL = CC(C)C[C@](C)(N)C(=O)O; AEEA = NCCOCCOCC(=O)O; Aib = CC(C)(N)C(=O)O

Columns and labels:
[1] = molecular target: T1, human glucagon receptor (GcgR) (Homo sapiens, UniProt P47871); assay: cAMP functional assay (HTRF) in HEK293 cells in presence of 0.1% casein; format: cell-based; conditions: HEK293 cells expressing human GcgR, geometric mean, read-out: hGcgR cAMP Rel EC50 nM (SEM, n)
T1 construct: expressed in transfected cells; host or cells: HEK293
T1 sequence (P47871 26-477): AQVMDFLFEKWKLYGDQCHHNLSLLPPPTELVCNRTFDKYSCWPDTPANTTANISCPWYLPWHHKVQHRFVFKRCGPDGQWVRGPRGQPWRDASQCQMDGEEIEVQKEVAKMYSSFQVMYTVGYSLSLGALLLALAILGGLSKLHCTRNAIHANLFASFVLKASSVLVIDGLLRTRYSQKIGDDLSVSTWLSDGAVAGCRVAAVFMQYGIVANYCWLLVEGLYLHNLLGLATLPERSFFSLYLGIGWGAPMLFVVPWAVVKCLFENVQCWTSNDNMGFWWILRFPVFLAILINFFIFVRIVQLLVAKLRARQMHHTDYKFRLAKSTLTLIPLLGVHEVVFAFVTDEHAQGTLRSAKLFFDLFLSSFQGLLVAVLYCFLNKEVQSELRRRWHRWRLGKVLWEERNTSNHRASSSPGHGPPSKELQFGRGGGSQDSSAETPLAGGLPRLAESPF

[2] = molecular target: T2, human glucose-dependent insulinotropic peptide receptor (GIPR) (Homo sapiens, UniProt P48546); assay: as above; format: cell-based; conditions: HEK293 cells expressing human GIPR, geometric mean, read-out: hGIPR cAMP Rel EC50 nM (SEM, n)
T2 construct: expressed in transfected cells; host or cells: HEK293
T2 sequence (P48546 22-466): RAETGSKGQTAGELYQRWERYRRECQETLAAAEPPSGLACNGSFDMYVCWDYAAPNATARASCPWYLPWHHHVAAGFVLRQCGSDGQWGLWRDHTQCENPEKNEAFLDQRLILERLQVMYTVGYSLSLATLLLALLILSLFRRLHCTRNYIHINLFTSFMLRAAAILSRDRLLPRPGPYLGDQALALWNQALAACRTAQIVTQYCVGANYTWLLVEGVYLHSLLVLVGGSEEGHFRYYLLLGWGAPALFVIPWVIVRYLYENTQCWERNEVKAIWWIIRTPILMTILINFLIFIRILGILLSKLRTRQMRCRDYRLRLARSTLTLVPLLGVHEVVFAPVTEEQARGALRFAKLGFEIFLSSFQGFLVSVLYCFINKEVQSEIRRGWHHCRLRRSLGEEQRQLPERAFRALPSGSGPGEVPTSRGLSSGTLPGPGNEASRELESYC

Compound | EC50 [1] [nM] | EC50 [2] [nM]
CC[C@H](C)[C@H](NC(=O)[C@H](CO)NC(=O)[C@H](Cc1ccc(O)cc1)NC(=O)[C@H](CC(=O)O)NC(=O)[C@H](CO)NC(=O)[C@@H](NC(=O)[C@](C)(Cc1ccccc1)NC(=O)[C@@H](NC(=O)CNC(=O)[C@H](CCC(=O)O)NC(=O)C(C)(C)NC(=O)[C@@H](N)Cc1ccc(O)cc1)[C@@H](C)O)[C@@H](C)CC)C(=O)N[C@@H](C)C(=O)N[C@@H](CC(C)C)C(=O)N[C@@H](CC(=O)O)C(=O)N[C@@H](CCCCN)C(=O)N[C@@H](CCCCNC(=O)COCCOCCNC(=O)COCCOCCNC(=O)CC[C@H](NC(=O)CCCCCCCCCCCCCCCCCCC(=O)O)C(=O)O)C(=O)N[C@@H](Cc1c[nH]cn1)C(=O)N[C@@H](CCC(N)=O)C(=O)NC(C)(C)C(=O)N[C@@H](CC(=O)O)C(=O)N[C@@H](Cc1ccccc1)C(=O)N[C@H](C(=O)N[C@@H](CCC(=O)O)C(=O)N[C@@H](Cc1ccncc1)C(=O)N[C@@H](CC(C)C)C(=O)N[C@@H](CC(C)C)C(=O)N[C@@H](CCC(=O)O)C(=O)NCC(=O)NCC(=O)N1CCC[C@H]1C(=O)N[C@@H](CO)C(=O)N[C@@H](CO)C(=O)NCC(=O)N[C@@H](C)C(=O)N1CCC[C@H]1C(=O)N1CCC[C@H]1C(=O)N1CCC[C@H]1C(=O)N[C@@H](CO)C(N)=O)C(C)C [Example 44] (H-Y[Aib]EGT[αMeF]ISDYSIALDKK([AEEA-AEEA-γGlu-C20 diacid])HQ[Aib]DFVE[4Pal]LLEGGPSSGAPPPS-NH2) | > 5000 | 0.0084
CC[C@H](C)[C@H](NC(=O)[C@H](Cc1ccccc1)NC(=O)[C@@H](NC(=O)CNC(=O)[C@H](CCC(=O)O)NC(=O)C(C)(C)NC(=O)[C@@H](N)Cc1ccc(O)cc1)[C@@H](C)O)C(=O)N[C@@H](CO)C(=O)N[C@@H](CC(=O)O)C(=O)N[C@@H](Cc1ccc(O)cc1)C(=O)N[C@@H](CO)C(=O)N[C@H](C(=O)N[C@@](C)(CC(C)C)C(=O)N[C@@H](CC(C)C)C(=O)N[C@@H](CC(=O)O)C(=O)N[C@@H](CCCCN)C(=O)N[C@@H](CCCCNC(=O)COCCOCCNC(=O)COCCOCCNC(=O)CC[C@H](NC(=O)CCCCCCCCCCCCCCCCCCC(=O)O)C(=O)O)C(=O)N[C@@H](Cc1c[nH]cn1)C(=O)N[C@@H](CCC(N)=O)C(=O)NC(C)(C)C(=O)N[C@@H](CC(=O)O)C(=O)N[C@@H](Cc1ccccc1)C(=O)N[C@H](C(=O)N[C@@H](CCC(=O)O)C(=O)N[C@@H](Cc1ccncc1)C(=O)N[C@@H](CC(C)C)C(=O)N[C@@H](CC(C)C)C(=O)N[C@@H](CCC(=O)O)C(=O)N[C@H](C(=O)NCC(=O)N1CCC[C@H]1C(=O)N[C@@H](CO)C(=O)N[C@@H](CO)C(=O)NCC(=O)N[C@@H](C)C(=O)N1CCC[C@H]1C(=O)N1CCC[C@H]1C(=O)N1CCC[C@H]1C(=O)N[C@@H](CO)C(N)=O)[C@@H](C)O)C(C)C)[C@@H](C)CC [Example 45] (H-Y[Aib]EGTFISDYSI[αMeL]LDKK([AEEA-AEEA-γGlu-C20 diacid])HQ[Aib]DFVE[4Pal]LLETGPSSGAPPPS-NH2) | 1690 | 0.049
CC[C@H](C)[C@H](NC(=O)[C@H](Cc1ccccc1)NC(=O)[C@@H](NC(=O)CNC(=O)[C@H](CCC(=O)O)NC(=O)C(C)(C)NC(=O)[C@@H](N)Cc1ccc(O)cc1)[C@@H](C)O)C(=O)N[C@@H](CO)C(=O)N[C@@H](CC(=O)O)C(=O)N[C@@H](Cc1ccc(O)cc1)C(=O)N[C@@H](CO)C(=O)N[C@H](C(=O)N[C@@](C)(CC(C)C)C(=O)N[C@@H](CC(C)C)C(=O)N[C@@H](CC(=O)O)C(=O)N[C@@H](CCCCN)C(=O)N[C@@H](CCCCNC(=O)COCCOCCNC(=O)COCCOCCNC(=O)CC[C@H](NC(=O)CCCCCCCCCCCCCCCCCCC(=O)O)C(=O)O)C(=O)N[C@@H](Cc1c[nH]cn1)C(=O)N[C@@H](CCC(N)=O)C(=O)NC(C)(C)C(=O)N[C@@H](CC(=O)O)C(=O)N[C@@H](Cc1ccccc1)C(=O)N[C@H](C(=O)N[C@@H](CCC(=O)O)C(=O)N[C@@H](Cc1ccncc1)C(=O)N[C@@H](CC(C)C)C(=O)N[C@@H](CC(C)C)C(=O)N[C@@H](CCC(=O)O)C(=O)N[C@@H](CCC(N)=O)C(=O)NCC(=O)N1CCC[C@H]1C(=O)N[C@@H](CO)C(=O)N[C@@H](CO)C(=O)NCC(=O)N[C@@H](C)C(=O)N1CCC[C@H]1C(=O)N1CCC[C@H]1C(=O)N1CCC[C@H]1C(=O)N[C@@H](CO)C(N)=O)C(C)C)[C@@H](C)CC [Example 46] (H-Y[Aib]EGTFISDYSI[αMeL]LDKK([AEEA-AEEA-γGlu-C20 diacid])HQ[Aib]DFVE[4Pal]LLEQGPSSGAPPPS-NH2) | 863 | 0.0294
CC[C@H](C)[C@H](NC(=O)[C@H](Cc1ccccc1)NC(=O)[C@@H](NC(=O)CNC(=O)[C@H](CCC(=O)O)NC(=O)C(C)(C)NC(=O)[C@@H](N)Cc1ccc(O)cc1)[C@@H](C)O)C(=O)N[C@@H](CO)C(=O)N[C@@H](CC(=O)O)C(=O)N[C@@H](Cc1ccc(O)cc1)C(=O)N[C@@H](CO)C(=O)N[C@H](C(=O)N[C@@](C)(CC(C)C)C(=O)N[C@@H](CC(C)C)C(=O)N[C@@H](CC(=O)O)C(=O)N[C@@H](CCCCN)C(=O)N[C@@H](CCCCNC(=O)COCCOCCNC(=O)COCCOCCNC(=O)CC[C@H](NC(=O)CCCCCCCCCCCCCCCCCCC(=O)O)C(=O)O)C(=O)N[C@@H](Cc1c[nH]cn1)C(=O)N[C@@H](CCC(N)=O)C(=O)NC(C)(C)C(=O)N[C@@H](CC(=O)O)C(=O)N[C@@H](Cc1ccccc1)C(=O)N[C@H](C(=O)N[C@@H](CCC(=O)O)C(=O)N[C@@H](Cc1ccncc1)C(=O)N[C@@H](CC(C)C)C(=O)N[C@@H](CC(C)C)C(=O)N[C@@H](CCC(=O)O)C(=O)NCC(=O)NCC(=O)N1CCC[C@H]1C(=O)N[C@@H](CO)C(=O)N[C@@H](CO)C(=O)NCC(=O)N[C@@H](C)C(=O)N1CCC[C@H]1C(=O)N1CCC[C@H]1C(=O)N1CCC[C@H]1C(=O)N[C@@H](CO)C(N)=O)C(C)C)[C@@H](C)CC [Example 47] (H-Y[Aib]EGTFISDYSI[αMeL]LDKK([AEEA-AEEA-γGlu-C20 diacid])HQ[Aib]DFVE[4Pal]LLEGGPSSGAPPPS-NH2) | 757 | 0.0234
CC[C@H](C)[C@H](NC(=O)[C@H](Cc1ccccc1)NC(=O)[C@@H](NC(=O)CNC(=O)[C@H](CCC(=O)O)NC(=O)C(C)(C)NC(=O)[C@@H](N)Cc1ccc(O)cc1)[C@@H](C)O)C(=O)N[C@@H](CO)C(=O)N[C@@H](CC(=O)O)C(=O)N[C@@H](Cc1ccc(O)cc1)C(=O)N[C@@H](CO)C(=O)N[C@H](C(=O)N[C@@](C)(CC(C)C)C(=O)N[C@@H](CC(C)C)C(=O)N[C@@H](CC(=O)O)C(=O)N[C@@H](CCCCN)C(=O)N[C@@H](CCCCNC(=O)COCCOCCNC(=O)COCCOCCNC(=O)CC[C@H](NC(=O)CCCCCCCCCCCCCCCCCCC(=O)O)C(=O)O)C(=O)N[C@@H](Cc1c[nH]cn1)C(=O)N[C@@H](CCC(N)=O)C(=O)NC(C)(C)C(=O)N[C@@H](CC(=O)O)C(=O)N[C@@H](Cc1ccccc1)C(=O)N[C@H](C(=O)N[C@@H](CCC(=O)O)C(=O)N[C@@H](Cc1ccncc1)C(=O)N[C@@H](CC(C)C)C(=O)N[C@@H](CC(C)C)C(=O)N[C@@H](C)C(=O)NCC(=O)NCC(=O)N1CCC[C@H]1C(=O)N[C@@H](CO)C(=O)N[C@@H](CO)C(=O)NCC(=O)N[C@@H](C)C(=O)N1CCC[C@H]1C(=O)N1CCC[C@H]1C(=O)N1CCC[C@H]1C(=O)N[C@@H](CO)C(N)=O)C(C)C)[C@@H](C)CC [Example 48] | 1360 | 0.0166
